From PMC9465062, “Exploring potential antidiabetic and anti-inflammatory flavonoids from Euphorbia humifusa with an integrated strategy” (Frontiers in Pharmacology, 2022)
Values joined by “and” are separate entries in the source; they are usually repeats but may differ in a detail not shown here. Equal values may be shown once. Read-outs that look alike come from different tables or passages of the source. Marks after values point to notes of the source that are not given here.

Tests used:
[1] = DPPH free radical scavenging assay; conditions: mean ± SD, n = 3
Description: (§1) The antioxidant activity of our samples was ascertained by evaluating their capacity to scavenge free radicals and reduce ferric ions. The DPPH and ABTS free radical scavenging assays were performed as per the method of Xu and his colleagues ([Xu et al., 2019]). Vit C, Trolox, and BHT were utilized as positive controls whereas pure methanol was for the blank control. The scavenging rate was calculated using the equation: Scavenging rate (%) =(A0 −AS)/A0× 100% With A 0 and As are ascribed to the absorbance value of the blank control, and the tested sample or positive control respectively. The results were expressed in IC50 values (n = 3, mean ± standard deviation).

[2] = target: T1, COX-2 (Homo sapiens, UniProt P35354); experiment: Bio-affinity ultrafiltration UPLC/QTOF-MS with COX-2; conditions: SB = Aactive/Ainactive, ligands from EHNB
T1 sequence (P35354 18-604): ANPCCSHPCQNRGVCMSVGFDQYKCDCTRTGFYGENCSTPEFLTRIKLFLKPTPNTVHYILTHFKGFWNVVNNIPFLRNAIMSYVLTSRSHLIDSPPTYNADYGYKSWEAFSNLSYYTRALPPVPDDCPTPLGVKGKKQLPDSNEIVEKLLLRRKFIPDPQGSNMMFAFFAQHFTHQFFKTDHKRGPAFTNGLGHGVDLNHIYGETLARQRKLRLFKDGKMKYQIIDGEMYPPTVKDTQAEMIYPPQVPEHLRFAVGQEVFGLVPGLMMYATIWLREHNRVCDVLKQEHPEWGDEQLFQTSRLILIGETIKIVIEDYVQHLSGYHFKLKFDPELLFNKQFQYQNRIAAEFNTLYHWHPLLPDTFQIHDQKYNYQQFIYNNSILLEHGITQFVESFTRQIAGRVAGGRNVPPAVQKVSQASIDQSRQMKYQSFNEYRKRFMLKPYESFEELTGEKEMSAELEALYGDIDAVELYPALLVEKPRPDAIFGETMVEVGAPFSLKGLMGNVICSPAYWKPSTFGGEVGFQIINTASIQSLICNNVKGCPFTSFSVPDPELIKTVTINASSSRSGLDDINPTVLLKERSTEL
Description: (§2) Concisely, 100 µL volume of EHNB sample was incubated with 40 µL COX-2 (8 units), or 100 µL α-Glu (6 units) active enzymes. Afterward, the mix solutions were incubated for 45 min and subsequently transferred to a centrifugal ultrafiltration vial 10 kDa cut-off filter membrane. They were initially centrifuged at 10,000 rpm for 10 min (25°C) to withdraw the extra solution followed by three successive centrifugations with 200 µL phosphate-buffered saline (PBS) to wash away the non-binding compounds. Finally, the fixed ligand candidates were fished out from the complex throughout enzyme denaturation with 200 μL of 70% (v/v) aqueous methanol before centrifugation (10,000 rpm, 10 min). The filtrates from three denaturation processes were gathered and dried on nitrogen blowing before reconstitution in 50 μL of aqueous methanol (50%, v/v) for further analytical analysis.
(§3) In this study, the high throughput ligand screening bio-affinity ultrafiltration UPLC/QTOF-MS targeting α-Glu and COX-2 has been utilized to fish out these key hypoglycemic and anti-inflammatory chemicals. […] Based on the comparison of peak areas of the chromatograms obtained from the sample incubated with the active enzyme and that of the denatured group, the relative binding of each candidate was assessed via the specific binding value calculated from the equation: Specific binding (SB)=Aactive/Ainactive

[3] = target: T1, COX-2; experiment: In vitro COX-2 inhibition assay (inhibitor screening kit); format: biochemical; parameters: purchased Beyotime Biotechnology (Shanghai, China) S0168
Description: In brief, the working solutions including COX-2 cofactor, COX-2 enzyme solution, COX-2 substrate, and COX-2 probe were first prepared in accordance with the supplier manual, which were subsequently diluted ten times with the buffer kit assay. Thereafter, 150 µL Tris-HCl (pH 7.8), 10 µL of COX-2 cofactor, and 10 µL of work solution excluding the blank group were mixed in a 96 well black plate. […] After a 10 min incubation at 37°C, the reaction was initiated with 10 µL of COX-2 probe and 10 µL of COX-2 substrate. Finally, their relative fluorescence unit (RFU) was read from an excitation wavelength of 560 nm and an emission wavelength of 590 nm, after 20 min of incubation (37°C).
With RFU 100% enzyme , RFU sample , and RFU blank control represent the relative fluorescence value of the intact enzyme, samples and blank control respectively. The experiment was conducted in triplicates and the IC50 values were expressed into mean ± standard deviation.

[4] = target: α-glucosidase (α-Glu) (Saccharomyces cerevisiae, UniProt P53341); experiment: Bio-affinity ultrafiltration UPLC/QTOF-MS with α-Glu; conditions: SB = Aactive/Ainactive, ligands from EHNB
Description: as §2, §3

[5] = ABTS free radical scavenging assay; conditions: mean ± SD, n = 3
Description: as §1

[6] = Ferric reducing antioxidant power (FRAP) assay; conditions: mean ± SD, n = 3
Description: The ferric […] behavior using the ferric reducing antioxidant power (FRAP) assay was conducted based on a priorly reported method by our research group ([Rakotondrabe et al., 2022]).

α-glucosidase (α-Glu), sequence (P53341 whole entry): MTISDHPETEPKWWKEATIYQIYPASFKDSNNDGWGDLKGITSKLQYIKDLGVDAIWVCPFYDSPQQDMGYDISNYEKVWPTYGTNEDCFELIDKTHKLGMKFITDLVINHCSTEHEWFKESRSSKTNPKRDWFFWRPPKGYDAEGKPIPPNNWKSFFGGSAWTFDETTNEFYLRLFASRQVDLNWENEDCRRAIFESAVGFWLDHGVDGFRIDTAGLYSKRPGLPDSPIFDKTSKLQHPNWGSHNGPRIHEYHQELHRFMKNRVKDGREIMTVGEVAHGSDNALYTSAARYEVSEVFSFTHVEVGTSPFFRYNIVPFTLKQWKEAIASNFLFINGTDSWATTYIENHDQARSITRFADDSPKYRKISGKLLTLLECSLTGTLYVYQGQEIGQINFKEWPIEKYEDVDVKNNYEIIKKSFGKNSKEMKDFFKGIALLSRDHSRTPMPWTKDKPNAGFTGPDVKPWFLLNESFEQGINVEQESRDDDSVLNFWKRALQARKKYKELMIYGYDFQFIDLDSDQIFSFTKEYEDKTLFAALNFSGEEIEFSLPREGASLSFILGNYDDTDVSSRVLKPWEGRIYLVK

Row | SMILES | IC50 DPPH [1] | IC50 ABTS [5] | COX-2 SB (specific binding) [2] | α-Glu SB (specific binding) [4] | FRAP [6] | further results
1 | Cc1cc(C(C)(C)C)c(O)c(C(C)(C)C)c1 [BHT, butylated hydroxytoluene] | 10.82 ± 0.37^c µg/ml |  |  |  |  | 
2 | O=c1c(O[C@@H]2O[C@H](CO)[C@@H](O)[C@H](O)[C@H]2O)c(-c2ccc(O)cc2)oc2cc(O)cc(O)c12 [Compound 6, Astragalin (Kaempferol-3-O-glucoside)] |  |  | 1.36 | 1.32 |  | IC50 ([3]; validation with pure compounds, Figure 6B, read-out: COX-2 IC50): 49.1 ± 1.49 µM
3 | O=c1cc(-c2ccc(O)cc2)oc2c([C@@H]3O[C@H](CO)[C@@H](O)[C@H](O)[C@H]3O)c(O)cc(O)c12 [Compound 8, Vitexin (Apigenin 8-C-glucoside)] |  |  | 1.32 | 1.26 |  | IC50 [3]: 27.9 ± 1.74 µM
4 | O=c1oc2c(O)c(O)cc3c(=O)oc4c(O)c(O)cc1c4c23 [Compound 4, Ellagic acid] |  |  | 1.05 | 1.28 |  | 

Further lines, with some results ahead:

Row | IC50 DPPH [1] | IC50 ABTS [5] | SMILES | COX-2 SB (specific binding) [2] | α-Glu SB (specific binding) [4] | FRAP [6] | further results
5 | 3.35 ± 0.12^f µg/ml | 4.18 ± 0.06^e µg/ml | O=C1O[C@H]([C@@H](O)CO)C(O)=C1O [Vit C, ascorbic acid] |  |  | 2.04 ± 0.01 mM Fe^2+/g and 2.04 ± 0.01^a mM Fe^2+/g | 
6 |  | 6.15 ± 0.98^d µg/ml | Cc1c(C)c2c(c(C)c1O)CCC(C)(C(=O)O)O2 (centres unmarked) [Trolox] |  |  | 1.79 ± 0.01 mM Fe^2+/g and 1.79 ± 0.01^b mM Fe^2+/g | 
